Laboratory results as given in patent US4272437A, “Antibacterial agents, and 4-thio azetidinone intermediates” (priority 1979, dated 1981).
Converted amounts (≈) assume the structure as drawn. Like-named read-outs stand apart in the source and are kept apart here.

What was measured:
Str. pneumoniae A-9585 = test: MIC, tube dilution, Streptococcus pneumoniae A9585; assay type: cell-based; conditions: Streptococcus pneumoniae, A9585, Str. pneumoniae A9585; overnight 37° C., Nutrient Broth; read-out: Minimum Inhibitory Concentration (M.I.C.)
Description: (§1) Representative compounds of the present invention were subjected to in vitro antibiotic screening against a variety of microorganisms.

Str. pyogenes A-9604 = test: MIC, tube dilution, Streptococcus pyogenes A9604; assay type: cell-based; conditions: Streptococcus pyogenes, A9604, Str. pyogenes A9604; overnight 37° C., Nutrient Broth; read-out: Minimum Inhibitory Concentration (M.I.C.)
Description: as §1

Staph. aureus A-9537 = test: MIC, tube dilution, Staphylococcus aureus A9537; assay type: cell-based; conditions: Staphylococcus aureus, A9537, Staph. aureus A9537; overnight 37° C., Nutrient Broth; read-out: Minimum Inhibitory Concentration (M.I.C.)
Description: as §1

[1] = system: Staph. aureus A-9537 and 50% serum; test: MIC, tube dilution, Staph. aureus A9537 + 50% serum; assay type: cell-based, Staphylococcus aureus; conditions: Staphylococcus aureus, overnight 37° C., read-out: Minimum Inhibitory Concentration (M.I.C.)
Description: as §1

[2] = system: Staph. aureus (Pen-Res) A-9606; test: MIC, tube dilution, Staphylococcus aureus A9606 (Pen-Res); assay type: cell-based; conditions: Staphylococcus aureus, Staph. aureus A9606 (Pen-Res); overnight 37° C.; read-out: Minimum Inhibitory Concentration (M.I.C.)
Description: as §1

[3] = system: Staph. aureus (Meth-Res) A-15097; test: MIC, tube dilution, Staphylococcus aureus A15097 (Meth-Res); assay type: cell-based; conditions: Staphylococcus aureus, Staph. aureus A15097 (Meth-Res); overnight 37° C.; read-out: Minimum Inhibitory Concentration (M.I.C.)
Description: as §1

Str. faecalis A-20688 = test: MIC, tube dilution, Streptococcus faecalis A20688; assay type: cell-based; conditions: Enterococcus faecalis, A20688, Str. faecalis A20688; overnight 37° C.; read-out: Minimum Inhibitory Concentration (M.I.C.)
Description: as §1

E. coli A-15119 = test: MIC, tube dilution, Escherichia coli A15119; assay type: cell-based; conditions: Escherichia coli, A15119, E. coli A15119; overnight 37° C.; read-out: Minimum Inhibitory Concentration (M.I.C.)
Description: as §1

E. coli A-20341-1 = test: MIC, tube dilution, Escherichia coli A20341-1; assay type: cell-based; conditions: Escherichia coli, A203411, E. coli A20341-1; overnight 37° C.; read-out: Minimum Inhibitory Concentration (M.I.C.)
Description: as §1

K. pneumoniae A-15130 = test: MIC, tube dilution, Klebsiella pneumoniae A15130; assay type: cell-based; conditions: Klebsiella pneumoniae, A15130, K. pneumoniae A15130; overnight 37° C.; read-out: Minimum Inhibitory Concentration (M.I.C.)
Description: as §1

[4] = system: Klebsiella species A20468; test: MIC, tube dilution, Klebsiella species A20468; assay type: cell-based; conditions: Klebsiella species (K. pneumoniae) A20468; overnight 37° C.; read-out: Minimum Inhibitory Concentration (M.I.C.)
Description: as §1

Pr. mirabilis A-9900 = test: MIC, tube dilution, Proteus mirabilis A9900; assay type: cell-based; conditions: overnight 37° C.; for MIC: Proteus mirabilis, A9900, Proteus mirabilis A9900, read-out: Minimum Inhibitory Concentration (M.I.C.)
Description: as §1

Pr. morganii A-15153 = test: MIC, tube dilution, Proteus morganii A15153; assay type: cell-based; conditions: overnight 37° C.; for MIC: Morganella morganii, A15153, Proteus morganii A15153, read-out: Minimum Inhibitory Concentration (M.I.C.)
Description: as §1

Ser. marcescens A-20019 = test: MIC, tube dilution, Serratia marcescens A20019; assay type: cell-based; conditions: Serratia marcescens, A20019, Serratia marcescens A20019; overnight 37° C.; read-out: Minimum Inhibitory Concentration (M.I.C.)
Description: as §1

Ent. cloacae A-9659 = test: MIC, tube dilution, Enterobacter cloacae A9659; assay type: cell-based; conditions: Enterobacter cloacae, A9659, Enterobacter cloacae A9659; overnight 37° C.; read-out: Minimum Inhibitory Concentration (M.I.C.)
Description: as §1

Ent. cloacae A-9656 = test: MIC, tube dilution, Enterobacter cloacae A9656; assay type: cell-based; conditions: Enterobacter cloacae, A9656, Enterobacter cloacae A9656; overnight 37° C.; read-out: Minimum Inhibitory Concentration (M.I.C.)
Description: as §1

Ps. aeruginosa A-9843A = test: MIC, tube dilution, Pseudomonas aeruginosa A9843A; assay type: cell-based; conditions: Pseudomonas aeruginosa, A9843A, read-out: Minimum Inhibitory Concentration (M.I.C.), Pseudomonas aeruginosa A9843A; overnight 37° C.
Description: as §1

Ps. aeruginosa A-21213 = test: MIC, tube dilution, Pseudomonas aeruginosa A21213; assay type: cell-based; conditions: Pseudomonas aeruginosa A21213; overnight 37° C.; read-out: Minimum Inhibitory Concentration (M.I.C.)
Description: as §1

Proteus rettgeri A21203 = test: MIC, tube dilution, Proteus rettgeri A21203; assay type: cell-based; conditions: Providencia rettgeri, A21203, Proteus rettgeri A21203; overnight 37° C.; read-out: Minimum Inhibitory Concentration (M.I.C.)
Description: as §1

Proteus vulgaris A21559 = test: MIC, tube dilution, Proteus vulgaris A21559; assay type: cell-based; conditions: Proteus vulgaris, A21559, Proteus vulgaris A21559; overnight 37° C.; read-out: Minimum Inhibitory Concentration (M.I.C.)
Description: as §1

S. aureus A9537 = test: In vivo protection of mice, lethal infection with S. aureus A9537; conditions: Staphylococcus aureus, A9537, im, IM, 2 treatments, read-out: PD50
Description: Representative compounds of the present invention were also tested in vivo in mice and their PD50 (dose of compound in mg/kg required to protect 50% of the treated mice against an otherwise lethal infection of a micro-organism) values determined with respect to the test organisms shown below.

SMILES: CC1=C(C(=O)O)N2C(=O)[C@H]([C@@H](C)O)[C@H]2S1 (relative stereo) [Example 60, (1'R,5R,6S and 1'S,5S,6R) 6-(1'-Hydroxy-1'-ethyl)-2-methylpenem-3-carboxylic Acid (isomer B)]
- MIC (Str. pneumoniae A-9585): 0.25 µg/mL (≈ 1.09 µM)
- MIC (Str. pyogenes A-9604): 1 µg/mL (≈ 4.36 µM)
- MIC (Staph. aureus A-9537): 2 µg/mL (≈ 8.72 µM)
- MIC [1]: 8 µg/mL
- MIC [2]: 4 µg/mL (≈ 17.4 µM)
- MIC [3]: 8 µg/mL (≈ 34.9 µM)
- MIC (Str. faecalis A-20688): 63 µg/mL (≈ 275 µM)
- MIC (E. coli A-15119): 16 µg/mL (≈ 69.8 µM)
- MIC (E. coli A-20341-1): 16 µg/mL (≈ 69.8 µM)
- MIC (K. pneumoniae A-15130): 16 µg/mL (≈ 69.8 µM)
- MIC [4]: 16 µg/mL (≈ 69.8 µM)
- Minimum Inhibitory Concentration (M.I.C.) (Pr. mirabilis A-9900; Proteus mirabilis A9900): 16 µg/mL
- MIC (Pr. mirabilis A-9900): 32 µg/mL (≈ 140 µM)
- MIC (Pr. morganii A-15153): 32 µg/mL (≈ 140 µM)
- Minimum Inhibitory Concentration (M.I.C.) (Pr. morganii A-15153; Proteus morganii A15153): 16 µg/mL
- MIC (Ser. marcescens A-20019): 16 µg/mL (≈ 69.8 µM)
- MIC (Ent. cloacae A-9659): 32 µg/mL (≈ 140 µM)
- MIC (Ent. cloacae A-9656): 16 µg/mL (≈ 69.8 µM)
- MIC (Ps. aeruginosa A-9843A): > 125 µg/mL
- MIC (Ps. aeruginosa A-21213): > 125 µg/mL
- MIC (Proteus rettgeri A21203): 16 µg/mL (≈ 69.8 µM)
- MIC (Proteus vulgaris A21559): 16 µg/mL (≈ 69.8 µM)
- ED50 (S. aureus A9537; 6.6 × 10^5 organisms): 7.7 mg/kg

SMILES: C[C@@H](O)[C@H]1C(=O)N2C(C(=O)O)=C(CN)S[C@H]12 (relative stereo) [Example 62, (1'R,5R,6S and 1'S,5S,6R) 2-Aminomethyl-6-(1'-hydroxy-1'-ethyl)-penem-3-carboxylic Acid (isomer B)]
- MIC (Str. pneumoniae A-9585): 0.03 µg/mL (≈ 0.123 µM)
- MIC (Str. pyogenes A-9604): 0.5 µg/mL (≈ 2.05 µM)
- MIC (Staph. aureus A-9537): 0.03 µg/mL (≈ 0.123 µM)
- MIC [1]: 0.25 µg/mL
- MIC [2]: 0.25 µg/mL (≈ 1.02 µM)
- MIC [3]: 0.5 µg/mL (≈ 2.05 µM)
- MIC (Str. faecalis A-20688): 32 µg/mL (≈ 131 µM)
- MIC (E. coli A-15119): 8 µg/mL (≈ 32.8 µM)
- MIC (E. coli A-20341-1): 8 µg/mL (≈ 32.8 µM)
- MIC (K. pneumoniae A-15130): 16 µg/mL (≈ 65.5 µM)
- MIC [4]: 32 µg/mL (≈ 131 µM)
- MIC (Pr. mirabilis A-9900): 2 µg/mL (≈ 8.19 µM)
- MIC (Pr. morganii A-15153): 2 µg/mL (≈ 8.19 µM)
- MIC (Ser. marcescens A-20019): 16 µg/mL (≈ 65.5 µM)
- MIC (Ent. cloacae A-9659): 32 µg/mL (≈ 131 µM)
- MIC (Ent. cloacae A-9656): 1 µg/mL (≈ 4.09 µM)
- MIC (Ps. aeruginosa A-9843A): 2 µg/mL (≈ 8.19 µM)
- MIC (Proteus rettgeri A21203): 2 µg/mL (≈ 8.19 µM)
- MIC (Proteus vulgaris A21559): 2 µg/mL (≈ 8.19 µM)
- ED50 (S. aureus A9537; 8.6 × 10^5 organisms): 1 mg/kg

SMILES: C[C@@H](O)[C@H]1C(=O)N2C(C(=O)O)=C(CCCCN)S[C@H]12 (relative stereo) [Example 64, (1'R,5R,6S and 1'S,5S,6R)-2-(4-Aminobutyl)-6-(1'-hydroxy-ethyl)-penem-3-carboxylic Acid (isomer B)]
- MIC (Str. pneumoniae A-9585): 0.016 µg/mL (≈ 0.0559 µM)
- MIC (Str. pyogenes A-9604): 0.03 µg/mL (≈ 0.105 µM)
- MIC (Staph. aureus A-9537): 0.06 µg/mL (≈ 0.21 µM)
- MIC [1]: 0.13 µg/mL
- MIC [2]: 0.13 µg/mL (≈ 0.454 µM)
- MIC [3]: 0.25 µg/mL (≈ 0.873 µM)
- MIC (Str. faecalis A-20688): 4 µg/mL (≈ 14 µM)
- MIC (E. coli A-15119): 2 µg/mL (≈ 6.98 µM)
- MIC (E. coli A-20341-1): 2 µg/mL (≈ 6.98 µM)
- MIC (K. pneumoniae A-15130): 4 µg/mL (≈ 14 µM)
- MIC [4]: 4 µg/mL (≈ 14 µM)
- MIC (Pr. mirabilis A-9900): 4 µg/mL (≈ 14 µM)
- MIC (Pr. morganii A-15153): 4 µg/mL (≈ 14 µM)
- MIC (Ser. marcescens A-20019): 4 µg/mL (≈ 14 µM)
- MIC (Ent. cloacae A-9659): 4 µg/mL (≈ 14 µM)
- MIC (Ent. cloacae A-9656): 16 µg/mL (≈ 55.9 µM)
- MIC (Ps. aeruginosa A-9843A): 16 µg/mL (≈ 55.9 µM)
- MIC (Proteus rettgeri A21203): 4 µg/mL (≈ 14 µM)
- MIC (Proteus vulgaris A21559): 2 µg/mL (≈ 6.98 µM)
- ED50 (S. aureus A9537; 8 × 10^5 organisms): 0.04 mg/kg
